The values below are quoted from earlier work in patent US6284262A, “Compact dosage unit for buccal administration of a pharmacologically active agent” (priority 1999, dated 2001).

Data set [1] relates to sex hormone-binding protein. As to conditions: plasma, adult men.
For data set [2], the system named is albumin and other proteins. Conditions: plasma, adult men.

For `C[C@]12CC[C@H]3[C@@H](CCC4=CC(=O)CC[C@@]43C)[C@@H]1CC[C@@H]2O` [testosterone], the “absorption after oral administration” value is “well absorbed” and the “therapeutic blood levels via oral administration” value was “not possible to achieve therapeutic blood levels”. In addition, the “testosterone bound to sex hormone-binding protein” value in data set [1] was “Approximately 40%”. Also, in data set [2], the “bound to albumin and other proteins” value was “the remainder”; the “free, or unbound testosterone” value is “about 2%”. The “degradation during passage through the liver and intestine” value (oral) is on record as “quickly degraded”.
